Assay results from the Kinase Knowledgebase extract (Sharma et al. 2016).

target: EGFR (UniProt P00533)
Sequence (P00533 whole entry, looked up): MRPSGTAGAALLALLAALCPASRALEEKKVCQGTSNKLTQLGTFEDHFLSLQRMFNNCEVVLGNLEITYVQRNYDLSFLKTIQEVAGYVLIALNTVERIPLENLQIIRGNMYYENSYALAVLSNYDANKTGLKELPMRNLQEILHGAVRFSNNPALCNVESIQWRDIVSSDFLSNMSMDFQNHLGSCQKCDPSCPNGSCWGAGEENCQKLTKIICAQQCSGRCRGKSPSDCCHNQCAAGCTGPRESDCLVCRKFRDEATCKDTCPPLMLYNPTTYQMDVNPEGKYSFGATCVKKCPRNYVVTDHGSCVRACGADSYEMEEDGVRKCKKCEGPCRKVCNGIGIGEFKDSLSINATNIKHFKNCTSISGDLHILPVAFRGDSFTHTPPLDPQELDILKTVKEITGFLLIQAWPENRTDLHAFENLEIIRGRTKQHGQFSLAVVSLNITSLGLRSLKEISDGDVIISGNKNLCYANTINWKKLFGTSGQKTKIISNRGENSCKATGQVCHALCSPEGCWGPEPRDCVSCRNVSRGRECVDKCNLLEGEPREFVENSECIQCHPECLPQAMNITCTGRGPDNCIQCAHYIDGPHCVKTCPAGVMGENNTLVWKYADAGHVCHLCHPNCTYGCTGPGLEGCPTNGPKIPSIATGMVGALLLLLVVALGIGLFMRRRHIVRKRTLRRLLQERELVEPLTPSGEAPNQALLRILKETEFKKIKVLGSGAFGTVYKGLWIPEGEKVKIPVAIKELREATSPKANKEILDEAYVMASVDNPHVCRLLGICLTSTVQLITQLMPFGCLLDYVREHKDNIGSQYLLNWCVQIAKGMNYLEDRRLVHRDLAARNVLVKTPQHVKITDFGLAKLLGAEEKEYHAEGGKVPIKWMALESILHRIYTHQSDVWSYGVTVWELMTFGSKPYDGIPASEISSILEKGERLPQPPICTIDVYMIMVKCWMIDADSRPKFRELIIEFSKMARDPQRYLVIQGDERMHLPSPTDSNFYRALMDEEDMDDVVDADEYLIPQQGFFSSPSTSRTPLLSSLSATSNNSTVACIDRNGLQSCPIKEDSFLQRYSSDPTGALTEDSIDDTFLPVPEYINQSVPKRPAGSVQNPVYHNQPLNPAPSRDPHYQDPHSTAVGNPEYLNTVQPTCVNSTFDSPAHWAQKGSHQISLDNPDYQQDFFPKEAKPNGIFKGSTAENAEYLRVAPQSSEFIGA

Row | SMILES | IC50 [nM]
1 | COc1cc2c(Nc3ccc(Cl)c(Cl)c3)ncnc2cc1OCc1csc(C2CCCNC2)n1 (stereo unspecified) | < 50
2 | COc1cc2c(Nc3ccc(Br)cc3Cl)ncnc2cc1O[C@@H]1CO[C@@H]2[C@H]1OC[C@H]2F | < 50
3 | COc1cc2c(Nc3cc(Cl)c(Br)cc3F)ncnc2cc1OC[C@H]1CN2CCOC[C@H]2CO1 | < 50
4 | COc1cc2c(Nc3ccc(F)c(Cl)c3F)ncnc2cc1OC[C@@H]1CN2CCC[C@H]2CO1 | < 50
5 | COc1cc2c(Nc3ccc(Cl)c(Cl)c3)ncnc2cc1OCc1nc(-c2ccc(N3CCCC3)cc2)cs1 | < 50
6 | COc1cc2c(Nc3c(F)cc(F)cc3F)ncnc2cc1O[C@@H]1CO[C@@H]2[C@H]1OC[C@H]2F | < 50
7 | COc1cc2c(Nc3ccc(F)cc3Br)ncnc2cc1O[C@@H]1CO[C@@H]2[C@H]1OC[C@H]2F | < 50
8 | COc1cc2c(Nc3cc(F)c(F)cc3F)ncnc2cc1O[C@@H]1CO[C@@H]2[C@H]1OC[C@H]2F | < 50
9 | COc1cc2c(Nc3ccc(Br)c(Cl)c3F)ncnc2cc1OC[C@@H]1CN2CCC[C@H]2CO1 | < 50
10 | COc1cc2c(Nc3ccc(F)c(F)c3)ncnc2cc1O[C@@H]1CO[C@@H]2[C@H]1OC[C@H]2F | < 50
11 | COc1cc2c(Nc3ccc(Br)c(Cl)c3)ncnc2cc1O[C@H]1CO[C@@H]2CCO[C@H]12 | < 50
12 | COc1cc2c(Nc3cc(Cl)c(Br)cc3F)ncnc2cc1OC[C@H]1C[C@@H]2CN(C)C[C@@H]2C1 | < 50
13 | CCN(CC)[C@H]1CO[C@@H]2[C@H]1OC[C@@H]2Oc1cc2ncnc(Nc3ccc(Br)c(Cl)c3)c2cc1OC | < 50
14 | COc1cc2c(Nc3ccc(Br)c(Cl)c3Cl)ncnc2cc1OCC1CN(C)C(C)(C)CO1 (stereo unspecified) | < 50
15 | COc1cc2c(Nc3ccc(Cl)c(Cl)c3)ncnc2cc1OCc1cc(Br)cc(Br)c1 | 50 to 1000
16 | COc1cc2c(Nc3ccc(Cl)c(Cl)c3)ncnc2cc1OCC1CC2CCC(C1)N2C (stereo unspecified) | < 50
17 | COc1cc2c(Nc3ccc(Br)c(Cl)c3F)ncnc2cc1OCC1CN(C)CCO1 (stereo unspecified) | < 50
18 | COc1cc2c(Nc3cccc(Cl)c3C)ncnc2cc1O[C@H]1CO[C@H]2[C@@H]1OC[C@@H]2OC | < 50
19 | COc1cc2c(Nc3ccc(Cl)c(Cl)c3)ncnc2cc1OCc1csc([C@@H]2CSCN2)n1 | < 50

Row | SMILES | IC50 [nM]
20 | COc1cc2c(Nc3cccc(Cl)c3F)ncnc2cc1OCC1CN(C)CCO1 (stereo unspecified) | < 50
21 | COc1cc2c(Nc3cc(Cl)ccc3Cl)ncnc2cc1O[C@@H]1CO[C@@H]2[C@H]1OC[C@H]2F | < 50
22 | COc1cc2c(Nc3ccc(Cl)c(Cl)c3)ncnc2cc1OCc1noc(C2CCCCN2C(=O)OC(C)(C)C)n1 (stereo unspecified) | < 50
23 | COc1cc2c(Nc3ccc(F)c(Cl)c3F)ncnc2cc1OC[C@H]1C[C@@H]2CN(C)C[C@@H]2C1 | < 50
24 | COc1cc2c(Nc3ccc(Cl)c(Cl)c3)ncnc2cc1OCc1nc(N(C)C)no1 | < 50
25 | COc1cc2c(Nc3cc(Cl)c(Cl)cc3F)ncnc2cc1OC[C@H]1C[C@@H]2CN(C)C[C@@H]2C1 | < 50
26 | COc1cc2c(Nc3ccc(Br)c(Cl)c3Cl)ncnc2cc1OC[C@@H]1CO[C@H]2[C@@H]1OC[C@@H]2O | < 50
27 | COc1cc2c(Nc3ccc(Cl)c(Cl)c3F)ncnc2cc1OC[C@@H]1CN2CCCC[C@H]2C(=O)N1 | < 50
28 | COc1cc2c(Nc3ccc(Cl)c(Cl)c3)ncnc2cc1OCc1nc(CN2CCCN(C)CC2)cs1 | < 50
29 | COc1cc2c(Nc3ccccc3Cl)ncnc2cc1O[C@@H]1CO[C@@H]2[C@H]1OC[C@H]2F | < 50
30 | COc1cc2c(Nc3ccc(Cl)c(Cl)c3)ncnc2cc1OCc1nc2c(s1)CNCC2 | < 50
31 | COc1cc2c(Nc3ccc(Cl)c(Cl)c3)ncnc2cc1OCc1nc(-c2ccncc2)cs1 | < 50
32 | CCN1CCC[C@H]1c1nc(COc2cc3ncnc(Nc4ccc(Cl)c(Cl)c4)c3cc2OC)cs1 | < 50
33 | COc1cc2c(Nc3ccc(F)cc3)ncnc2cc1O[C@@H]1CO[C@@H]2[C@H]1OC[C@H]2F | < 50
34 | COc1cc2c(Nc3ccc(Br)cc3F)ncnc2cc1O[C@@H]1CO[C@@H]2[C@H]1OC[C@H]2F | < 50
35 | COc1cc2c(Nc3ccc(Br)c(Cl)c3F)ncnc2cc1OCC1CN(C)C(C)(C)CO1 (stereo unspecified) | < 50
36 | COc1cc2c(Nc3ccc(Br)c(Cl)c3F)ncnc2cc1OC[C@@H]1CN2CCC[C@H]2C(=O)N1 | < 50
37 | COc1ccc(OC)c(Nc2ncnc3cc(O[C@@H]4CO[C@@H]5[C@H]4OC[C@H]5F)c(OC)cc23)c1 | < 50
38 | COc1cc2c(Nc3ccc(Cl)c(Cl)c3)ncnc2cc1OCc1noc(-c2ccccc2)n1 | < 50

Row | SMILES | IC50 [nM]
39 | COc1cc2c(Nc3ccc(Br)c(Cl)c3F)ncnc2cc1OC[C@@H]1CN(C)CC(=O)N1 | < 50
40 | COc1cc2c(Nc3ccc(Cl)c(Cl)c3F)ncnc2cc1O[C@H]1CO[C@H]2[C@@H]1OC[C@@H]2OC | < 50
41 | COc1cc2c(Nc3cccc(Cl)c3C)ncnc2cc1OCC1CN(C)CCO1 (stereo unspecified) | < 50
42 | COc1cc2c(Nc3ccccc3Br)ncnc2cc1O[C@@H]1CO[C@@H]2[C@H]1OC[C@H]2F | < 50
43 | COc1cc2c(Nc3ccc(Cl)c(Cl)c3)ncnc2cc1OCC1CCCCC1 | < 50
44 | COc1cc2c(Nc3ccc(F)c(Cl)c3F)ncnc2cc1OCC1CO[C@@H]2[C@@H](OC)CO[C@H]12 (stereo partly specified) | < 50
45 | COc1cc2c(Nc3ccc(Cl)c(Cl)c3)ncnc2cc1OCc1csc(-c2ccc(Cl)cc2)n1 | 50 to 1000
46 | COc1cc2c(Nc3ccc(F)cc3F)ncnc2cc1O[C@@H]1CO[C@@H]2[C@H]1OC[C@H]2F | < 50
47 | COc1cc2c(Nc3ccc(Br)c(Cl)c3)ncnc2cc1O[C@@H]1CO[C@@H]2[C@H]1OC[C@H]2NS(C)(=O)=O | < 50
48 | COc1cc2c(Nc3ccc(Br)c(Cl)c3F)ncnc2cc1O[C@H]1CO[C@H]2[C@@H]1OC[C@@H]2OC | < 50
49 | COc1cc2c(Nc3ccc(Cl)c(Cl)c3)ncnc2cc1OCc1csc(-c2ccc(C(F)(F)F)cc2)n1 | 50 to 1000
50 | COc1cc2c(Nc3ccc(Cl)c(Cl)c3)ncnc2cc1OCc1csc(CO)n1 | < 50
51 | COc1cc2c(Nc3ccc(Br)c(Cl)c3)ncnc2cc1O[C@H]1CO[C@@H]2[C@H]1OC[C@@H]2N1CCCCC1 | < 50
52 | COc1cc2c(Nc3ccc(Br)c(Cl)c3Cl)ncnc2cc1O[C@@H]1CO[C@@H]2[C@H]1OC[C@H]2F | < 50
53 | CCO[C@H]1CO[C@H]2[C@@H]1OC[C@@H]2Oc1cc2ncnc(Nc3ccc(Br)c(Cl)c3)c2cc1OC | < 50
54 | COc1cc2c(Nc3ccc(Cl)c(Cl)c3)ncnc2cc1OC1CC2CCC(C1)N2C (stereo unspecified) | < 50
55 | COc1cc2c(Nc3ccc(C)c(Br)c3)ncnc2cc1O[C@@H]1CO[C@@H]2[C@H]1OC[C@H]2F | < 50
56 | COc1cc2c(Nc3ccc(Cl)c(Cl)c3)ncnc2cc1OCc1nc(N2CCOCC2)no1 | < 50
57 | COc1cc2c(Nc3ccc(Cl)c(Cl)c3)ncnc2cc1OCc1ccc2nc(C(F)(F)F)cc(Cl)c2c1 | 50 to 1000

Other lines, results leading:

Row | IC50 [nM] | SMILES
58 | < 50 | COc1cccc(CC(=O)N2CCOC(COc3cc4ncnc(Nc5ccc(Cl)c(Cl)c5)c4cc3OC)C2)c1 (stereo unspecified)
59 | < 50 | COc1cc2c(Nc3ccc(Cl)c(Cl)c3)ncnc2cc1OCC1CN(C2CCC2)CCO1 (stereo unspecified)
60 | < 50 | COc1cc2c(Nc3cc(Cl)c(Cl)cc3F)ncnc2cc1OCC1CN(C)CCO1 (stereo unspecified)
61 | < 50 | COc1cc2c(Nc3ccc(Cl)c(Cl)c3)ncnc2cc1OCC1CN(C(=O)Cc2ccc(Cl)cc2)CCO1 (stereo unspecified)
62 | < 50 | COCCOc1cc2c(Nc3ccc(Cl)c(Cl)c3)ncnc2cc1OCC1CNCCO1 (stereo unspecified)
63 | < 50 | CCC(=O)CN1CCOC(COc2cc3ncnc(Nc4ccc(Cl)c(Cl)c4)c3cc2OC)C1 (stereo unspecified)
64 | < 50 | COc1cc2c(Nc3ccc(Cl)c(Cl)c3)ncnc2cc1OCC1CN(C(=O)c2cccnc2Cl)CCO1 (stereo unspecified)
65 | < 50 | CCN1CCOC(COc2cc3ncnc(Nc4ccc(Cl)c(Cl)c4)c3cc2OC)C1 (stereo unspecified)
66 | < 50 | COc1cc2c(Nc3ccc(Cl)c(Cl)c3)ncnc2cc1OCC1CN(CCCOC2CCCCO2)CCCO1 (stereo unspecified)
67 | < 50 | COc1cc2c(Nc3ccc(Cl)c(Cl)c3)ncnc2cc1OCC1CN(CCCC#N)CCO1 (stereo unspecified)
68 | < 50 | CNC(=NC#N)N1CCOC(COc2cc3ncnc(Nc4ccc(Cl)c(Cl)c4)c3cc2OC)C1 (stereo unspecified)
69 | < 50 | COc1cc2c(Nc3ccc(Cl)c(Cl)c3)ncnc2cc1OCC1COCCN1C (stereo unspecified)
70 | < 50 | CCNC(=NC#N)N1CCOC(COc2cc3ncnc(Nc4ccc(Cl)c(Cl)c4)c3cc2OC)C1 (stereo unspecified)
71 | < 50 | CCCCCCN1CCOC(COc2cc3ncnc(Nc4ccc(Cl)c(Cl)c4)c3cc2OC)C1 (stereo unspecified)
72 | < 50 | COc1cc2c(Nc3ccc(Cl)c(Cl)c3)ncnc2cc1OCC1CN(C)CC(C)(C)O1 (stereo unspecified)
73 | < 50 | CC(C)Oc1cc2c(Nc3ccc(Cl)c(Cl)c3)ncnc2cc1OCC1CNCCO1 (stereo unspecified)
74 | < 50 | COc1cc2c(Nc3ccc(Cl)c(Cl)c3)ncnc2cc1OCCN1CCCC1

Row | IC50 [nM] | SMILES
75 | < 50 | CCN1CCN(C)CC1COc1cc2ncnc(Nc3ccc(Cl)c(Cl)c3)c2cc1OC (stereo unspecified)
76 | < 50 | COc1cc2c(Nc3ccc(Cl)c(Cl)c3)ncnc2cc1OCC1CN2CCOCC2CO1 (stereo unspecified)
77 | < 50 | COc1cc2c(Nc3ccc(Cl)c(Cl)c3)ncnc2cc1OCCC1CN(C)C(C)(C)CO1 (stereo unspecified)
78 | < 50 | COc1cc2c(Nc3ccc(Cl)c(Cl)c3)ncnc2cc1OCC1CN(C(=O)c2ccc3c(c2)OCO3)CCO1 (stereo unspecified)
79 | < 50 | C=CCCCCN1CCOC(COc2cc3ncnc(Nc4ccc(Cl)c(Cl)c4)c3cc2OC)C1 (stereo unspecified)
80 | < 50 | COc1cc2c(Nc3ccc(Cl)c(Cl)c3)ncnc2cc1OCC1CN(C2CCCC2)CCO1 (stereo unspecified)
81 | < 50 | COc1cc2c(Nc3ccc(Cl)c(Cl)c3)ncnc2cc1OCC1CN(CC2CC2)CCCO1 (stereo unspecified)
82 | < 50 | COC(=O)CCCCN1CCOC(COc2cc3ncnc(Nc4ccc(Cl)c(Cl)c4)c3cc2OC)C1 (stereo unspecified)
83 | < 50 | COc1cc2c(Nc3ccc(Cl)c(Cl)c3)ncnc2cc1OCC1CC1
84 | < 50 | COc1cc2c(Nc3ccc(Cl)c(Cl)c3)ncnc2cc1OCC1CN(S(=O)(=O)Cc2ccccc2)CCO1 (stereo unspecified)
85 | < 50 | COc1cc2c(Nc3ccc(Cl)c(C)c3)ncnc2cc1OCC1CN(C)CCO1 (stereo unspecified)
86 | 50 to 1000 | CCCN1CCCOC(COc2cc3ncnc(Nc4ccc(Cl)c(Cl)c4)c3cc2OC)C1 (stereo unspecified)
87 | < 50 | CC(C)Oc1cc2c(Nc3ccc(Cl)c(Cl)c3)ncnc2cc1OCC1CN(C)CCO1 (stereo unspecified)
88 | < 50 | C#CCN1CCOC(COc2cc3ncnc(Nc4ccc(Cl)c(Cl)c4)c3cc2OC)C1 (stereo unspecified)
89 | < 50 | COc1cc2c(Nc3ccc(Cl)c(Cl)c3)ncnc2cc1OCC1CN(CC(=O)c2ccccc2)CCO1 (stereo unspecified)
90 | < 50 | COc1cc2c(Nc3ccc(Cl)c(Cl)c3)ncnc2cc1OCC1CN(C(=NC#N)N2CCN(C)CC2)CCO1 (stereo unspecified)
91 | < 50 | COc1cc2c(Nc3ccc(Cl)c(Cl)c3)ncnc2cc1OCCC1CNC(C)(C)CO1 (stereo unspecified)
